Experimental data: article PMC8163982, “Partial agonism improves the anti-hyperglycaemic efficacy of an oxyntomodulin-derived GLP-1R/GCGR co-agonist” (Molecular Metabolism, 2021)
Where a SMILES comes first, the peptide text is derived from it. [ ]: non-standard residue; d: D form. Aib = CC(C)(N)C(=O)O

Experiments:
Type in all cases: cell-based
human GIPR = target: T1, human GIPR (Homo sapiens, UniProt P48546); experiment: cAMP production (HTRF) in PathHunter CHO-K1 cells expressing GIPR; details: 30 min, mean ± SEM, n = 6; for EC50: 37 °C, serum-free medium, no phosphodiesterase inhibitors, read-out: GIPR CAMP (CHO–K1) pEC50 (converted); for Emax: CHO-K1, normalised to globally fitted maximum response
T1 construct: host or cells: PathHunter CHO-K1-βarr2-EA
T1 sequence (P48546 22-466): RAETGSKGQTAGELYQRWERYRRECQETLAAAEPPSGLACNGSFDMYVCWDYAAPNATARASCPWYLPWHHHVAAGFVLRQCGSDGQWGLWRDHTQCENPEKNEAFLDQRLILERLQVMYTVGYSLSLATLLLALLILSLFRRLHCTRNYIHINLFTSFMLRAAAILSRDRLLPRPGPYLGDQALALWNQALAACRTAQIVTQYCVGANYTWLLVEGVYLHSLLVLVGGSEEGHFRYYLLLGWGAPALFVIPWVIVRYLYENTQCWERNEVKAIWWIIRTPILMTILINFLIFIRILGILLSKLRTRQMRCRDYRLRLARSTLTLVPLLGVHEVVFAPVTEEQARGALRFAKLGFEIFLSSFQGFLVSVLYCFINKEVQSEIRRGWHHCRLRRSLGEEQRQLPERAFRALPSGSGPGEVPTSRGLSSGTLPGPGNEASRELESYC
Protocol: (§1) HEK293T cells were maintained in DMEM supplemented with 10% FBS and 1% penicillin/streptomycin. PathHunter CHO–K1-βarr2-EA cells stably expressing human GLP-1R, GCGR, or GIPR and PathHunter CHO–K1-βarr1-EA cells stably expressing GCGR were obtained from DiscoverX and maintained in Ham's F12 medium with 10% FBS and 1% penicillin/streptomycin. Stable HEK293-SNAP-GLP-1R cells were maintained in DMEM supplemented with 10% FBS, 1% penicillin/streptomycin, and 1 mg/ml of G418. INS-1 832/3 cells, a gift from Professor Chris Newgard (Duke University), were maintained in RPMI with 11 mM of glucose supplemented with 10% FBS, 10 mM of HEPES, 1 mM of pyruvate, 50 μM of β-mercaptoethanol, and 1% penicillin/streptomycin. Huh7 cells stably expressing human GCGR (Huh7-GCGR) were maintained in DMEM supplemented with 10% FBS, 1 mg/ml of G418, and 1% penicillin/streptomycin.
(§2) PathHunter cells were stimulated with the indicated concentration of agonist for 30 min at 37 °C in serum-free medium without phosphodiesterase inhibitors. INS-1 832/3 cells were stimulated with the indicated concentration of agonist for 10 min at 37 °C in serum-free medium with 100 μM of 3-isobutyl-1-methylxanthine (IBMX). Primary dispersed mouse islet cells prepared by triturating intact islets in 0.05% trypsin/EDTA for 3 min at 37 °C were stimulated with the indicated concentration of agonist for 5 min at 37 °C in serum-free medium with 11 mM of glucose and 500 μM of IBMX. Primary mouse hepatocytes were stimulated in serum-free medium with 100 μM of IBMX for 10 min or 16 h in serum-free medium with 100 μM of IBMX added for the final 10 min of incubation. Huh7-GCGR cells were stimulated in serum-free medium without phosphodiesterase inhibitors for 10 min or for 16 h in serum-free medium. Where relevant, forskolin (10 μM) was added as a positive or normalisation control. At the end of each incubation, cAMP was then assayed by HTRF (Cisbio cAMP Dynamic 2) and concentration-response curves were constructed with 3-parameter curve fitting using Prism 8.0.

SNAP-GLP-1R = target: T2, SNAP-GLP-1R (Homo sapiens, UniProt P43220); experiment: High content imaging assay for SNAP-GLP-1R internalisation; details: high content analysis, mean ± SEM, n = 4, read-out: HCA assay (HEK293-SNAP-GLP-1R) pEC50 (converted)
T2 construct: expressed in transfected cells
Protocol: The assay was adapted from a previously described method. HEK293T cells were seeded in black clear-bottom plates coated with 0.1% poly-D-lysine and assayed 24 h after transfection with SNAP-tagged GLP-1R or GCGR plasmid DNA (0.1 μg per well). The cells were labelled with the cleavable SNAP-tag probe BG-S-S-549 (a gift from New England Biolabs) in complete medium for 30 min at room temperature. After washing, fresh serum-free medium ± agonist was added. At the end of incubation, the medium was removed and the wells were treated with for 5 min at 4 °C with Mesna (100 mM in alkaline TNE buffer at a pH of 8.6) to remove BG-S-S-549 bound to residual surface receptors without affecting the internalised receptor population or with alkaline TNE buffer alone. After washing, phase contrast and epifluorescence cellular imaging at 20× magnification was performed, followed by processing as previously described to quantify the amount of internalised receptor from the fluorescence intensity readings.

GCGR [1] = target: T3, GCGR (Homo sapiens, UniProt P47871); experiment: cAMP production (HTRF) in PathHunter CHO-K1 cells expressing GCGR; parameters: expressed in transfected cells; details: 30 min, mean ± SEM, n = 6; for EC50: 37 °C, serum-free medium, no phosphodiesterase inhibitors, read-out: GCGR CAMP (CHO–K1) pEC50 (converted); for Emax: CHO-K1, normalised to globally fitted maximum response
Protocol: as §1, §2

GCGR [2] = target: T3, GCGR; experiment: cAMP accumulation in Huh7-GCGR cells; parameters: expressed in transfected cells; host or cells: Huh7; details: mean ± SEM, n = 6; for Emax: expressed relative to 10 μM forskolin response
Protocol: as §1, §2

[3] = 16 h, read-out: Huh7-GCGR cAMP,16 h Emax
[4] = 16 h, read-out: Huh7-GCGR cAMP,16 h pEC50 (converted)
[5] = Huh7-GCGR cAMP, 10 min pEC50, 10 min, no phosphodiesterase inhibitors
[6] = read-out: Huh7-GCGR cAMP, 10 min Emax, 10 min

T3 sequence (P47871 26-477): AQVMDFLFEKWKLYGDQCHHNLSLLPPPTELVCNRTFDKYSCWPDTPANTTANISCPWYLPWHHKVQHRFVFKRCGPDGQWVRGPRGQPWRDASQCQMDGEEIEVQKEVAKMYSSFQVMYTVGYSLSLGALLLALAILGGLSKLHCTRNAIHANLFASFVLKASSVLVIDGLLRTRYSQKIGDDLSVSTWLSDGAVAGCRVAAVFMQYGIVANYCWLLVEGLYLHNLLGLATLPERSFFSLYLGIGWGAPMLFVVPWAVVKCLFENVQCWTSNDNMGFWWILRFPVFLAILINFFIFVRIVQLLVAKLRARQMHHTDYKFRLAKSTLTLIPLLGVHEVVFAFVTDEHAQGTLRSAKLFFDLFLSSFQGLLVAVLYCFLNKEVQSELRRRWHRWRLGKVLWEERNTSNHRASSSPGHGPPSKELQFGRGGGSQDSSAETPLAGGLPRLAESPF
T2 sequence (P43220 24-463): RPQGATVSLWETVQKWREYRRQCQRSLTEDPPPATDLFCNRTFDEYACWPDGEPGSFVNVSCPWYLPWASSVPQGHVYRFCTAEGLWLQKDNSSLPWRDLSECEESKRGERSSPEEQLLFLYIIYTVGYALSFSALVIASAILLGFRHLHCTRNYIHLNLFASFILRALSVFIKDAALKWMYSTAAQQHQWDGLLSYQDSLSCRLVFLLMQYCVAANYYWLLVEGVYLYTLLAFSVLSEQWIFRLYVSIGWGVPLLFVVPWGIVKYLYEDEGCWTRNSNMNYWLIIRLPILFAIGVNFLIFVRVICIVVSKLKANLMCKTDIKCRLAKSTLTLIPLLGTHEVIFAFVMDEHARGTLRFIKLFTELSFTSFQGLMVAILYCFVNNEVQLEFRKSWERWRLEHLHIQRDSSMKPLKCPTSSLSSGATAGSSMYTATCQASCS

| SMILES | EC50 (human GIPR) | Emax (human GIPR) | EC50 (SNAP-GLP-1R) | EC50 (GCGR [1]) | Emax (GCGR [1]) | Emax (GCGR [2]; [3]) | EC50 (GCGR [2]; [4]) | EC50 (GCGR [2]; [5]) | Emax (GCGR [2]; [6]) |
| --- | --- | --- | --- | --- | --- | --- | --- | --- | --- |
| CC[C@H](C)[C@H](NC(=O)[C@H](Cc1ccccc1)NC(=O)[C@H](CCC(=O)O)NC(=O)[C@H](CCC(N)=O)NC(=O)[C@H](C)NC(=O)[C@H](CCCNC(=N)N)NC(=O)[C@H](CCCCN)NC(=O)[C@H](C)NC(=O)[C@H](CC(=O)O)NC(=O)[C@H](CC(C)C)NC(=O)[C@H](Cc1ccc(O)cc1)NC(=O)[C@H](CCCCN)NC(=O)[C@H](CO)NC(=O)[C@H](Cc1ccc(O)cc1)NC(=O)[C@H](CC(=O)O)NC(=O)[C@H](CO)NC(=O)[C@@H](NC(=O)[C@H](Cc1ccccc1)NC(=O)[C@@H](NC(=O)CNC(=O)[C@H](Cc1c[nH]cn1)NC(=O)C(C)(C)NC(=O)[C@@H](N)Cc1c[nH]cn1)[C@@H](C)O)[C@@H](C)O)C(=O)N[C@@H](CCC(=O)O)C(=O)N[C@@H](Cc1c[nH]c2ccccc12)C(=O)N[C@@H](CC(C)C)C(=O)N[C@@H](CC(C)C)C(=O)N[C@@H](C)C(=O)NCC(=O)N[C@@H](Cc1c[nH]cn1)C(=O)N[C@@H](Cc1c[nH]cn1)C(=O)N[C@@H](Cc1c[nH]cn1)C(=O)N[C@@H](Cc1c[nH]cn1)C(=O)N[C@@H](Cc1c[nH]cn1)C(=O)N1CCC[C@H]1C(=O)N[C@@H](CO)C(=O)N[C@@H](Cc1c[nH]c2ccccc12)C(=O)O [SRB103H] (H-H[Aib]HGTFTSDYSKYLDAKRAQEFIEWLLAGHHHHHPSW-OH) | 25100 pM | 101 ± 5% | 7940 pM | 251 pM | 107 ± 5% | 173 ± 11% | 251 pM | 31.6 pM | 27 ± 4% |
| CC[C@H](C)[C@H](NC(=O)[C@H](Cc1ccccc1)NC(=O)[C@H](CCC(=O)O)NC(=O)[C@H](CCC(N)=O)NC(=O)[C@H](C)NC(=O)[C@H](CCCNC(=N)N)NC(=O)[C@H](CCCCN)NC(=O)[C@H](C)NC(=O)[C@H](CC(=O)O)NC(=O)[C@H](CC(C)C)NC(=O)[C@H](Cc1ccc(O)cc1)NC(=O)[C@H](CCCCN)NC(=O)[C@H](CO)NC(=O)[C@H](Cc1ccc(O)cc1)NC(=O)[C@H](CC(=O)O)NC(=O)[C@H](CO)NC(=O)[C@@H](NC(=O)[C@H](Cc1ccccc1)NC(=O)[C@@H](NC(=O)CNC(=O)[C@H](CCC(N)=O)NC(=O)C(C)(C)NC(=O)[C@@H](N)Cc1c[nH]cn1)[C@@H](C)O)[C@@H](C)O)C(=O)N[C@@H](CCC(=O)O)C(=O)N[C@@H](Cc1c[nH]c2ccccc12)C(=O)N[C@@H](CC(C)C)C(=O)N[C@@H](CC(C)C)C(=O)N[C@@H](C)C(=O)NCC(=O)N[C@@H](Cc1c[nH]cn1)C(=O)N[C@@H](Cc1c[nH]cn1)C(=O)N[C@@H](Cc1c[nH]cn1)C(=O)N[C@@H](Cc1c[nH]cn1)C(=O)N[C@@H](Cc1c[nH]cn1)C(=O)N1CCC[C@H]1C(=O)N[C@@H](CO)C(=O)N[C@@H](Cc1c[nH]c2ccccc12)C(=O)O [SRB103Q] (H-H[Aib]QGTFTSDYSKYLDAKRAQEFIEWLLAGHHHHHPSW-OH) | 100000 pM | 92 ± 9% | 2510 pM | 398 pM | 103 ± 4% | 284 ± 38% | 200 pM | 15.8 pM | 27 ± 4% |
